Values of other authors in US20080254117A1, “PROCESS FOR PREPARING PRAMIPEXOLE DIHYDROCHLORIDE TABLETS” (priority 2007, published 2008).
Counter-ions that a name gives are not always drawn.

What was measured:
[1] = not given; remark: listed apart in the source

solubility in buffer media (between pH 2 and pH 7.4)	Water solubility (water)	light sensitivity in solution ([1]; in solution)	stability in the solid state ([1]; solid state)	Structure (SMILES)
above 10 mg/mL	more than 20 mg/mL	–	–	CCCN[C@H]1CCc2nc(N)sc2C1 [Pramipexole dihydrochloride monohydrate, pramipexole dihydrochloride monohydrate]
–	–	light sensitive	very stable in the solid state	CCCN[C@H]1CCc2nc(N)sc2C1 [Pramipexole, (S)-2-amino-4,5,6,7-tetrahydro-6-(propylamino)benzothiazole]
